Data on six compounds can be found in US8765678B2, “Inhibition of the renin-angiotensin system for the treatment of renal, vascular and cartilage pathology” (Mor Research Applications Ltd., priority 2005, dated 2014).

One test concerns Chondrocytes. As to the kind of experiment: Radioactive assay (^35S labeling) of cell-associated GAGs in chondrocytes. In kind it is cell-based. How it is done: Chondrocytes: Tissue bits from articular cartilage were incubated in-vitro and explant cell cultures were established as described [Nevo et al., 1972, Dev Biol 28: 219-228]. The cell cultures were assessed by immunohistochemistry.
(§1) Radioactive assay (^35S labeling): Cells were grown to confluence, and were rendered quiescent in 2% FCS for 24 hours, following which they were transferred to serum-free medium plus one of the following additives: control, PAN 40 μg/ml, PAN+E 200 μg/ml, PAN+E 400 μg/ml, PAN+E 800 μg/ml, PAN+C10^−7M candesartan in the presence of 1 μCi/ml ^35S. Following 24 hours, medium was collected, cells were harvested by trypsinization, and aliquots obtained for cell and protein measurements. Cells were digested with papain as described, followed by extensive dialysis against water containing a non-radioactive sodium sulfate, until water contained less than 100 cpm/ml. Dialysate was transferred to Corex tubes and the same procedure was carried out as described for non-radioactive GAGs. Radioactivity was measured in a beta-counter.

The test system of test [1] is Human umbilical vein endothelial cells (HUVEC). Nature of the test: Radioactive assay (^35S labeling) of cell-associated GAGs in endothelial cells. In kind it is cell-based. Here is the method: Endothelial cells: Human umbilical vein endothelial cells (HUVEC) were isolated by collagenase treatment. Cultures were established in M-199 medium containing 10% FCS, 25 μl/ml endothelial mitogen (Biomedical Technologies, Mass., USA) and antibiotics. HUVEC were passaged by treatment with 0.25% trypsin/0.02% EDTA, and passages 2-3 were used for experiments.
as §1

Test [2] concerns Rat mesangial cells (RMC). As to the kind of experiment: Radioactive assay (^35S labeling) of cell-associated GAGs in RMC. It counts as cell-based. To be noted: for cell-associated GAGs (^35S), % of control: RMC. Here is the method:
(§2) Rat mesangial cells (RMC): RMC derived from Sprague-Dawley rats (#ATCC-mesangial-CRL-2573) were cultured in DMEM supplemented with 15% fetal calf serum (FCS) and antibiotics, according to ATCC instructions. Mesangial cells are derived from the glomerular interstitium of the kidney and thus serve as a valuable tool for the analysis of the GBM.
as §1

The subject of test [3] is rats with PAN nephrosis. Nature of the test: Electron microscopy morphology of kidney sections. It counts as in vivo. The settings on record: PAN injected rat kidney, without or with enalapril treatment. How it is done: (§3) Animals and treatment regimen—Twenty-six male Wistar rats (Belinson, Israel, 220-260 gr each) were housed in individual metabolic cages, and allowed free access to a standard diet and water. Following an acclimatization period of 3 days, the rats were randomized into three groups: controls, puromycin aminonucleoside-treated (PAN-treated) and PAN+ enalapril treated. Six controls were injected with 0.9% NaCl, and 20 rats were injected with PAN (75 mg/kg, Sigma, St. Louis, Mo.) through the tail vein. Ten of the latter were treated with enalapril (Merck Research Laboratories, 50 mg/L) in their drinking water 3 days prior to PAN injection. On day 9, 24-hour urine collections were performed and the protein content was measured using the Beckman Array-Protein system. On day 10, rats were weighed and blood was collected for measurement of serum albumin, creatinine and cholesterol (Autoanalyzer, Hitachi, Japan). All animal experimentation was conducted according to the guidelines established by the Rabin Medical Center ethical committee for the Care and Use of Laboratory Animals
Tissue preparation: The kidneys were removed rapidly and placed on ice and the cortices were separated from the medulla. Slices of each kidney were fixed in 0.5% glutaraldehyde in phosphate buffered saline (PBS), pH 7.4 for morphological and histochemical studies. […]

Test [4] deals with rats with PAN nephrosis. Nature of the test: Blood and urine tests in rats with PAN nephrosis. To be noted: Wistar rats; PAN 75 mg/kg tail vein; enalapril 50 mg/L in drinking water from 3 days prior to PAN; blood day 10. It counts as in vivo, rat. How it is done: as §3
For test [5], the system named is GBM of nephrotic PAN rats. As to the kind of experiment: CCG binding to the GBM, electron microscopy histochemistry and morphometry. In kind it is in vivo, rat. The settings on record: for CCG binding to the GBM (electron micrograph): PAN injected rat kidney, without or with enalapril treatment; for CCG binding, particles/μm^2 GBM (morphometric analysis): PAN rats, non-treated or enalapril-treated, control 67.3+5.6; for anionic GAG sites / preservation of GAGs in the GBM: nephrotic PAN rats. Here is the method: as §3
Tissue preparation: The kidneys were removed rapidly and placed on ice and the cortices were separated from the medulla. Slices of each kidney were fixed in 0.5% glutaraldehyde in phosphate buffered saline (PBS), pH 7.4 for morphological and histochemical studies. For electron microscopy (EM), 1 mm^3 tissue blocks of GA-fixed kidneys were washed, dehydrated in ethanol, and embedded in LR-white resin (Polysciences, Wash. Pa.). For EM morphology, similar tissue blocks were post-fixed with 1% Osmium tetroxide (OsO4) in Veronal-acetate buffer, pH 7.4, for 1 hour at 4° C., dehydrated in ethanol and propylene oxide, and embedded in araldite (Polysciences).
Electron microscopy morphology and histochemistry: For EM morphology, ultrathin araldite sections were mounted on 400 mesh grids, stained with uranyl acetate and lead citrate, and coated with carbon. F or EM histochemistry, ultrathin LR-white sections were mounted on 200 mesh nickel grids, coated with formvar films and impregnated with carbon. Polycationic colloidal gold (CCG) was prepared by stabilization of colloidal gold, 12 nm with poly-L-lysine, as described by Weinstein et al., [J Am Soc Nephrol 8: 586-595, 1997]. The sections were stained with CCG, rinsed, and stained with saturated uranyl acetate in 50% ethanol. Examination of all sections was carried out using a JEOL-100B EM at 80 KV.
Morphometry: Analysis of the CCG labeling densities was performed in a blind manner on LR-white-embedded kidney tissue stained with CCG. Analysis was carried out by calculating the density of gold particles/1 μm^2 area of randomly cut membranes. Five rats from each group were studied. In each rat, 100 measurements from 10 glomeruli were performed. All measurements were carried out on digitized electron micrographs at a magnification of 5000, using the NIH-Image 1.49 program for the Macintosh.

For test [6], the system named is Rat mesangial cells (RMC). As to the kind of experiment: Calorimetric assay of cell-associated GAGs. In kind it is cell-based. The settings on record: for cell-associated GAGs: 36 hours. Here is the method: as §2
Calorimetric assay: Cell-associated GAGs were isolated from RMC by cetylpyridinium chloride (CPC, Sigma) precipitation, as described by (Nevo et al., 1972). Briefly, cells were rendered quiescent in 2% FCS for 24 hours (i.e., starvation conditions), then incubated in DMEM for 36 hours with PAN 40 μg/ml (Sigma), in the presence of increasing doses of enalaprilat [(E), the active form of enalapril], according to the following protocol: control, PAN, PAN+E 200 μg/ml, PAN+E 400 μg/ml, PAN+E 800 μg/ml. Following thorough rinsing in PBS, RMC were harvested using 0.05% trypsin/EDTA. Following addition of a buffer containing 0.1 M sodium acetate, 0.005 M EDTA (Sigma), 0.005 M cysteine (Sigma), and 0.1% papain (Sigma), pH 5.4, the mixtures were incubated for 48 hours at 65° C. and dialyzed for 24 hours against distilled water. NaCl was added to the dialysate to a final concentration of 30 mM, and mixed well. GAGs were precipitated by the addition of CPC to a final concentration of 0.5% and the solution was incubated overnight at 37° C. The precipitate was collected by centrifugation, dissolved in 2 M CaCl2, reprecipitated with ethanol:ether (2:1), collected by centrifugation and dried. GAGs were determined calorimetrically (uronic acid content×3.3=GAG content) using heparan sulfate as standard and expressed as μg GAGs/10^6 cells.

In test [7] the test system is Osteoarthritic-induced rat. As to the kind of experiment: Osteoarthritis model of partial meniscectomy, intra-articular ACE-I gel. The settings on record: rats, composite gel containing 5% captopril in the joint, 6 weeks. It counts as in vivo. The source says: Osteoarthritis (OA) was induced in 32 rats using the model of partial meniscectomy of Rolli Moskowitz [Moskowitz, R W and Goldberg V M, J. Rheumatol. 1987 May; 14 Spec No:116-8; Moskowitz, R W et al., Ann Rheum Dis. 1981 December; 40(6):584-92]. The tissues of the control rats undergoing partial meniscectomy (8 rats) were immediately closed by suturing, while to the ACE-I treated group (24 rats), immediately following post partial meniscectomy, a composite gel containing ACE-I (5% captopril) was added prior to suturing the joint layers. After 6 weeks the animals were sacrificed. Prior to termination of the experiment a physical checkup ensured the degree of limping and movement limitation of the operated lower limb using an apparatus conducting a digital measurement of the degree of disability, translated to the pressure in grams activated by the operated limb, versus the healthy limb. Histological sections of the joint, femur and tibia, were prepared and stained with hematoxylin-eosin (H&E) as well as with Alcian blue at pH 2.5 and 1.0, and Masson's trichrome stain (Dako, Calif., U.S.A.). Together, these staining techniques assess proteoglycan content and extracellular matrix deposition.

Test [8] relates to inflammatory arthritis in mice. To be noted: Dalbeth et al., Rheumatology 44:24-31, 2004; cited from earlier work.
The mark [9] stands for this setting: chondrocytes pretreated with puromycin.
[10] abbreviates: chondrocytes, pretreatment with puromycin + enalaprilat 200 μg/ml.

Entries after “also recorded” stand apart in the source; their conditions may differ.

Regarding `CN(C)c1ncnc2c1ncn2[C@@H]1O[C@H](CO)[C@@H](N)[C@H]1O` [PAN, puromycin aminonucleoside], in the test with Chondrocytes (setting [9]), the “^35S-GAG cpm ± SD” value turned out to be 4333 ± 108 cpm and the “^35S-GAG, % of control culture” value was determined as 68%. In addition, the “cell associated GAGs (^35S), % of control” value in [1] (PAN 40 μg/ml) is 81%. The “cell-associated GAGs (^35S), % of control” value in test [2] (PAN 40 μg/ml, 24 hours) is recorded as 69%. Further, the “podocyte architecture (electron microscopy)” value in the test with rats with PAN nephrosis [3] is “loss of podocyte architecture in the glomeruli with flattening and effacement of foot processes”. This compound also returned a serum creatinine in the test on rats with PAN nephrosis [4] of 0.60 ± 0.01 mg/dL. In test [5], the “CCG binding to the GBM (electron micrograph)” value is “marked decrease in CCG binding to the GBM”; the “CCG binding, particles/μm^2 GBM (morphometric analysis)” value is reported as 39.1±1.0 particles/μm^2 GBM; the “anionic GAG sites / preservation of GAGs in the GBM” value is given as “decreased anionic GAG sites in the GBM”. Moreover, the “cell-associated GAGs” value in [6] (PAN 40 μg/ml, control 5.03+0.6) was 2.35±0.54 μg GAGs/106 cells.

Turning to `CCOc1nc2cccc(C(=O)O)c2n1Cc1ccc(-c2ccccc2-c2nnn[nH]2)cc1` [candesartan], in [1] (PAN + candesartan 10^−7 M), the “cell associated GAGs (^35S), % of control” value is reported as 107%. In addition, the “cell-associated GAGs (^35S), % of control” value in [2] (PAN + candesartan 10^−7 M (first column of that head, c3)) was 76 ± 6.2%; in [2] (PAN + candesartan 10^−7 M (second column of that head, c4)), 102%.

As for `C[C@H](CS)C(=O)N1CCC[C@H]1C(=O)O` [captopril], in test [7], the OA manifestations result was “only a mild initiation of OA, evident by minimal fibrillations and cell cloning; also recorded: slows down, and minimizes the OA manifestations”; the “articular cartilage histology (cellularity, proteoglycans)” value is “highly cellular, with a dense presentation of proteoglycans”.

Regarding `CCOC(=O)[C@H](CCc1ccccc1)N[C@@H](C)C(=O)N1CCC[C@H]1C(=O)O` [enalapril], in the test on rats with PAN nephrosis [4], the serum cholesterol was 91.7 ± 10.7 mg/dL and the serum creatinine was 0.60 ± 0.02 mg/dL. In test [5], the “CCG binding to the GBM (electron micrograph)” value is “intense CCG binding similar to control”; the “CCG binding, particles/μm^2 GBM (morphometric analysis)” value is listed as 56.0±5.5 particles/μm^2 GBM; the “anionic GAG sites / preservation of GAGs in the GBM” value was “beneficial effect on the preservation of GAGs in the GBM”.

Consider `C[C@H](N[C@@H](CCc1ccccc1)C(=O)O)C(=O)N1CCC[C@H]1C(=O)O` [enalaprilat], for which the “^35S-GAG, % of control culture” value turned out to be 108% in the test with Chondrocytes (chondrocytes, in the presence of enalaprilat 200 μg/ml, no puromycin) and 152% in the test on Chondrocytes (setting [10]). The “^35S-GAG cpm ± SD” value with Chondrocytes (chondrocytes, in the presence of enalaprilat 200 μg/ml, no puromycin, control culture 6331 ± 1075) amounted to 6820 ± 1651 cpm; with Chondrocytes (setting [10]) it was 9636 ± 1848 cpm. In addition, in [1] (PAN + enalaprilat 800 μg/ml), the “cell associated GAGs (^35S), % of control” value is listed as 96%. Further, in [2] (PAN + enalaprilat 800 μg/ml), the “cell-associated GAGs (^35S), % of control” value came out at 80%. Besides, in test [2] (cell type not given, in the presence of PAN), the “GAG synthesis (incorporation of ^35S), summary statement” value is given as “significantly increased GAG synthesis to control levels”. In addition, the “cell-associated GAGs” value in test [6] (PAN 40 μg/ml + E 200 μg/ml) is reported as 2.43+0.42 μg GAGs/10^6 cells; in test [6] (PAN 40 μg/ml + E 400 μg/ml), 2.8+0.65 μg GAGs/10^6 cells; in test [6] (PAN 40 μg/ml + E 800 μg/ml) it was 5.3±0.43 μg GAGs/10^6 cells. The “GAG content, dose dependence” value in test [6] (PAN 40 μg/ml + enalaprilat 200-800 μg/ml) was “dose-dependent rise in GAG content”.

For the compound `CCOC(=O)[C@H](CCc1ccccc1)N[C@@H](C)C(=O)N1Cc2ccccc2C[C@H]1C(=O)O` [quinapril], in test [8], the “inflammatory arthritis / disease activity” value is “suppress inflammatory arthritis”.
